Data: patent publication US7750019B2, “Pyrimidine compound having benzyl(pyridylmethyl)amine structure and medicament comprising the same” (Kowa Company, Ltd., priority 2006, dated 2010)
pIC50: −log10 of the molar value. Structures can show the parent of a compound that is named as a salt.

Legend:
CETP [1] = molecular target: T1, CETP (Homo sapiens, UniProt P11597); assay: CETP inhibitory action in human plasma (Roar Biomedical CETP Activity kit, fluorescence); assay type: biochemical; conditions: human plasma incubated with compound at 37° C. for 4 hours; read-out: IC50 (concentration inhibiting the CETP activity by 50%)
T1 construct: The CETP activity in this plasma was measured with Cholesteryl Ester Transfer Protein Activity kit; from tissue; host or cells: human plasma
T1 sequence (P11597 18-493): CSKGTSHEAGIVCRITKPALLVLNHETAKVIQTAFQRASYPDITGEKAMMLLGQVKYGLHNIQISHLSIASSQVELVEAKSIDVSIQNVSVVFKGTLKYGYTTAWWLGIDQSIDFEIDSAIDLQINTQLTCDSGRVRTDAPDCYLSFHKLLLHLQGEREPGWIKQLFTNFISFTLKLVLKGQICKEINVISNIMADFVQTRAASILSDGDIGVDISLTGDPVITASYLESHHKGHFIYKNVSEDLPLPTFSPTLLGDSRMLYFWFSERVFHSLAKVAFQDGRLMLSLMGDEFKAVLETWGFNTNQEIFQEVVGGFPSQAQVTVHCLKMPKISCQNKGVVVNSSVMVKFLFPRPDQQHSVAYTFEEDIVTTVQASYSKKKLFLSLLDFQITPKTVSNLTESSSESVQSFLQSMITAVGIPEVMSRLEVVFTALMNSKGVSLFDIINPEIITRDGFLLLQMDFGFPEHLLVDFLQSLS
Protocol: A solution obtained by dissolving an exemplary compound or a comparative compound in polyethyleneglycol/N-methyl-2-pyrrolidone (vol/vol=1/1) was added to human plasma, and the mixture was incubated in an incubator at 37° C. for 4 hours. The CETP activity in this plasma was measured with Cholesteryl Ester Transfer Protein Activity kit (Roar Biomedical, catalog No.: RB-CETP). Specifically, to each well of a 96-well plate, 95 μL of a buffer (10 mM Tris, 150 mM NaCl, 2 mM EDTA, pH 7.4), 2 μL of Donor particle and 2 μL of Acceptor particle were added, 1 μL of the human plasma after the incubation was added to the mixture, and the mixture was incubated in an incubator at 37° C. for 2 hours. After completion of the incubation, fluorescence intensity (FLU) was measured with a fluorescence plate reader (excitation wavelength: 465 nm, emission wavelength: 535 nm). In accordance with the following equation 1, the CETP activity (% of control) was obtained for the compounds of the examples and the comparative compounds for two or more concentrations. CETP activity (% of control)=(Sample FLU−Blank FLU)×100/(Control FLU−Blank FLU) (Equation 1) In the equation, the terms have the following meanings: Blank: No addition of plasma Control: Plasma not added with solution of compound Sample: Plasma added with solution of compound
A value obtained by subtracting the value of the CETP activity from 100 was defined as the CETP inhibitory rate of each exemplary compound and comparative compound, and a concentration inhibiting the CETP activity by 50% (IC50) was calculated for each exemplary compound and comparative compound from the values of the CETP inhibitory rate at two or more concentrations. As the comparative compounds, the following compounds were used, which are compounds having a benzyl(heterocyclylmethyl)amine structure described in Examples 52, 66 and 79 of Patent document 9 (International Patent Publication WO2006/073973).

CETP [2] = assay: CETP inhibitory activity in blood of hamster (single oral administration); assay type: in vivo; conditions: 30 mg/kg single oral dose in olive oil, blood collected 2 hours after administration, n=3, control 33.7 ± 2.3
Protocol: 1: Labeling of Donor Lipoprotein (HDL3 Fraction) with ^3H-Cholesterol and Preparation of Acceptor Lipoprotein (LDL Fraction)
The donor lipoprotein was prepared by adding KBr to plasma of healthy human subject (50 mL) to adjust the specific gravity (d) of the plasma to be 1.125, centrifuging the mixture at 100,000 rpm and 4° C. for 2.5 hours (Optima Max-E TLA-100.2 rotor, Beckman), and collecting the lower layer (HDL3 fraction, d>1.125). The resulting fraction was dialyzed against PBS (10 mM Na2HPO4, 10 mM NaH2PO4, 0.15 M NaCl, 1 mM EDTA-2Na, pH 7.4). Then, a 95% ethanol solution of 9.25 MBq 1, 2-3H(N)cholesterol (NEN™, Life Science Products, USA) was added to the sample with stirring, and the mixture was incubated at 37° C. for 18 hours. After the incubation, the mixture was added with KBr to adjust the specific gravity thereof to be 1.210, and centrifuged under the same conditions as mentioned above to obtain the upper layer (^3H-labeled HDL3 fraction, 1.125<d<1.210). The ^3H-labeled HDL3 was dialyzed against PBS, and used for the measurement of the CETP activity.
The acceptor lipoprotein was prepared as follows. Plasma of healthy human subject (30 mL) was centrifuged under the same conditions as mentioned above, and the upper layer (chylomicron and VLDL fraction, d<1.006) was removed. The lower layer was added with KBr to adjust the specific gravity thereof to be 1.063, and centrifuged under the same conditions to obtain the upper layer (LDL fraction, 1.006<d<1.063). The LDL fraction was dialyzed against PBS and used for the measurement of the CETP activity.
Each of the compounds of Examples 10 and 13 and the comparative compounds was dissolved in olive oil and orally administered once to the animals, and blood was collected from the abdominal portion of vena cava under pentobarbital anesthetization 2 hours after the administration. Further, as a control, olive oil in which any compound was not dissolved was administered, and blood was collected in a similar manner (n=3 for each).
(§1) To 10 μL of the hamster plasma, 5 μL of ^3H-labeled HDL3 and 20 μL of LDL were added, and the final volume of the mixture was made […] with a TBS solution (10 mM Tris, 0.15 M NaCl, pH 7.4). The mixture was incubated at 37° C. for 18 hours, then added with 400 μL of the TBS solution containing 0.15 M MgCl2 and 0.3% dextran sulfate, stirred (10 sec×2) with VORTEX-2 (Scientific Industries Inc.), left for 30 minutes on ice, and centrifuged at 4° C. and 8,000 rpm for 10 minutes (MX-301, TOMY). The resulting centrifugation supernatant (^3H-labeled HDL3 fraction) in a volume of 300 μL was collected in a vial, and added with 3.6 mL of a scintillator (Aquazol-2, Packard), and the mixture was stirred. Then, radioactivity of ^3H was measured with a liquid scintillation counter (TRI-CARB 2700 TR, Packard). The CETP activity (%) was obtained in accordance with the following equation 2. CETP activity (%)=(Blank dpm−Sample dpm)×100/(Blank dpm) (Equation 2) In the equation, the terms have the following meanings: Blank dpm: Value of ^3H radioactivity of sample not added with plasma Sample dpm: Value of ^3H radioactivity of sample added with compound or control sample.

CETP [3] = assay: CETP inhibitory activity in blood of hamster (repetitive oral administration for 7 days); assay type: in vivo; conditions: 100 mg/kg orally once a day for 7 days, blood collected 2 hours after final administration, n=5, control 43.5 ± 6.4
Protocol: as §1, with “sample. […]” for “sample.”

`CCN(CC1CCCC1)c1ccc(OC)nc1CN(Cc1cc(C(F)(F)F)cc(C(F)(F)F)c1)c1ncc(OCCS(C)(=O)=O)cn1` (as salt: hydrochloride) [Example 13, 2-[N-[3,5-bis(trifluoromethyl)benzyl]-N-[3-(N-cyclopentylmethyl-N-ethyl)amino-6-methoxypyridin-2-yl]methyl]amino-5-(2-methylsulfonylethoxy)pyrimidine] showed a melting point of 67 to 71 °C.
With `CCN(CC1CCCC1)c1nc2ccccc2cc1CN(Cc1cc(C(F)(F)F)cc(C(F)(F)F)c1)c1nnn(C)n1` [Comparative Compound 1, reference compound] the pIC50 (CETP [1]) was 6.00 and the “Average CETP activity ± standard deviation (%)” value (CETP [2]) was 22.9 ± 3.3%.
For `CCN(CC1CCCC1)c1nc2ccccc2cc1CN(Cc1cc(C(F)(F)F)cc(C(F)(F)F)c1)c1ncccn1` [Comparative Compound 2, reference compound], the pIC50 (CETP [1]) was 4.70 and the “Average CETP activity ± standard deviation (%)” value (CETP [2]) was 30.3 ± 4.2%.
In the case of `CCN(CC1CCCC1)c1nc(C)c(C)cc1CN(Cc1cc(C(F)(F)F)cc(C(F)(F)F)c1)c1nnn(C)n1` [Comparative Compound 3, reference compound], the pIC50 (CETP [1]) was 5.82 and the “Average CETP activity ± standard deviation (%)” value (CETP [2]) was 15.0 ± 4.0%.
`CCN(CC1CCCC1)c1ccc(OC)nc1CN(Cc1cc(C#N)cc(C(F)(F)F)c1)c1ncc(OCC[S+](C)[O-])cn1` (stereo not drawn) [Example 9, 2-[N-(3-cyano-5-trifluoromethylbenzyl)-N-[3-(N-cyclopentylmethyl-N-ethyl)amino-6-methoxypyridin-2-yl]methyl]amino-5-(2-methylsulfinylethoxy)pyrimidine] showed a pIC50 (CETP [1]) of 7.05.
For `CCN(CC1CCCC1)c1ccc(OC)nc1CN(Cc1cc(C#N)cc(C(F)(F)F)c1)c1ncc(OCCS(C)(=O)=O)cn1` [Example 10, 2-[N-(3-cyano-5-trifluoromethylbenzyl)-N-[3-(N-cyclopentylmethyl-N-ethyl)amino-6-methoxypyridin-2-yl]methyl]amino-5-(2-methylsulfonylethoxy)pyrimidine], the “Average CETP activity ± standard deviation (%)” value (CETP [3]) was 11.4 ± 6.0%, the melting point was 97.2 to 98.2 °C and the pIC50 (CETP [1]) was 7.46. For the same molecule, the “Average CETP activity ± standard deviation (%)” value (CETP [2]) was 2.6 ± 1.1%.
For `CCN(CC1CCCC1)c1ccc(OC)nc1CN(Cc1cc(C(F)(F)F)cc(C(F)(F)F)c1)c1ncc(OCC[S+](C)[O-])cn1` (stereo not drawn) [Example 12, 2-[N-[3,5-bis(trifluoromethyl)benzyl]-N-[3-(N-cyclopentylmethyl-N-ethyl)amino-6-methoxypyridin-2-yl]methyl]amino-5-(2-methylsulfinylethoxy)pyrimidine], the pIC50 (CETP [1]) was 6.46.
In the case of `CCN(CC1CCCC1)c1ccc(OC)nc1CN(Cc1cc(C(F)(F)F)cc(C(F)(F)F)c1)c1ncc(OCCS(C)(=O)=O)cn1` [Example 13, 2-[N-[3,5-bis(trifluoromethyl)benzyl]-N-[3-(N-cyclopentylmethyl-N-ethyl)amino-6-methoxypyridin-2-yl]methyl]amino-5-(2-methylsulfonylethoxy)pyrimidine], the “Average CETP activity ± standard deviation (%)” value (CETP [3]) was 9.0 ± 1.7%, the pIC50 (CETP [1]) was 6.60 and the “Average CETP activity ± standard deviation (%)” value (CETP [2]) was 8.5 ± 1.7%.
With `CCN(CC1CCCC1)c1ccc(OC)nc1CN(Cc1cc(C#N)cc(C#N)c1)c1ncc(OCC[S+](C)[O-])cn1` (stereo not drawn) [Example 41, 2-[N-[3-(N-cyclopentylmethyl-N-ethyl)amino-6-methoxypyridin-2-yl]methyl-N-(3,5-dicyanobenzyl)]amino-5-(2-methylsulfinylethoxy)pyrimidine] the pIC50 (CETP [1]) was 6.30.
Molecule `CCN(CC1CCCC1)c1ccc(OC)nc1CN(Cc1cc(C#N)cc(C#N)c1)c1ncc(OCCS(C)(=O)=O)cn1` [Example 42, 2-[N-[3-(N-cyclopentylmethyl-N-ethyl)amino-6-methoxypyridin-2-yl]methyl-N-(3,5-dicyanobenzyl)]amino-5-(2-methylsulfonylethoxy)pyrimidine] has a pIC50 (CETP [1]) of 6.60.
